Results from patent publication US7456146B2, “Lytic peptide prodrugs” (GHC Research Development Corporation, priority 2001, dated 2008).
Starred links: 1 amine or outer side, 2 acyl side, 3 side chain; linkers in the order of their positions; H or OH if unused. Groups on a side chain read outwards from the residue. No end group written: not given here. γGlu = O=C(O)[C@H](CCC(=O)[*:2])N[*:1]

Experiments:
PNCap = experiment: lytic activity on cultured tumor cells, prostate tumor PNCap (FIG. 4); assay type: cell-based; details: 1, 10, 50 or 100 μM peptide
Procedure: (§1) This experiment, utilized a melittin analog having A [ε-γ]-Glu-[α-γ]-Glu at each of lysines 21 and 23: NH2-[…][ε-γ]-Glu-[α-γ]-Glu)-Arg-Lys([ε-γ]-Glu-[α-γ]-Glu)-Arg-Gln-Gln-COOH. (SEQ ID NO: 19) Two prostate tumors (PNCap and DU0145), two ovarian tumors (HeLa and SK-OV-3), one lung tumor (LLC 1) and one melanoma (B 16) were tested. Cultured cells were treated with 1, 10, 50 or 100 μM peptide.

DU0145 = experiment: lytic activity on cultured tumor cells, prostate tumor DU0145 (FIG. 4); assay type: cell-based; details: 1, 10, 50 or 100 μM peptide
Procedure: as §1

HeLa = experiment: lytic activity on cultured tumor cells, HeLa (FIG. 4, FIG. 5); assay type: cell-based
Procedure: as §1
(§2) The same analog was used to treat a PSMA-expressing prostate cells (LNCaP-FCG), ovarian cancer cells (HeLa) or prostate cells not expressing PSMA (PC3).

SK-OV-3 = experiment: lytic activity on cultured tumor cells, ovarian tumor SK-OV-3 (FIG. 4); assay type: cell-based; details: 1, 10, 50 or 100 μM peptide
Procedure: as §1

LLC 1 = experiment: lytic activity on cultured tumor cells, lung tumor LLC 1 (FIG. 4); assay type: cell-based; details: 1, 10, 50 or 100 μM peptide
Procedure: as §1

B 16 = experiment: lytic activity on cultured tumor cells, melanoma B 16 (FIG. 4); assay type: cell-based; details: 1, 10, 50 or 100 μM peptide
Procedure: as §1

[1] = tested on: PSMA-expressing prostate cells (LNCaP-FCG); experiment: toxicity to PSMA-expressing prostate cells (FIG. 5); assay type: cell-based; details: 25 and 50 mM concentrations
Source text: as §2

[2] = tested on: prostate cells not expressing PSMA (PC3); experiment: toxicity to prostate cells not expressing PSMA (FIG. 5); assay type: cell-based; details: 25 and 50 mM concentrations
Source text: as §2

mice = experiment: toxicity of escalating doses in mice; assay type: in vivo; details: 50, 100, 150 and 200 mM
Procedure: To assess the toxicity of this analog, mice were treated with escalating doses of analog, either subcutaneously or intravenously.

nucleated cells = details: cited from earlier work
[3] = tested on: human prostate cancer cells (LNCaP); experiment: cell lysis assay, LNCaP prostate tumor cells (FIG. 1); assay type: cell-based; details: 50 μM; after 15 minutes
Procedure: For cell lysis assay, 10^6 LNCaP prostate tumor cells were cultured in 48-well plate in 200 μl culture medium containing different concentrations of the peptide. The culture medium for LNCaP cell was RPMI 1640 medium with 2 mM L-glutamine adjusted to contain 1.5 g/L sodium bicarbonate, 4.5 g/L glucose, 10 mM HEPES, 1.0 mM sodium pyruvate, 90%; fetal bovine serum 10%. […]

mouse L-cells [4] = experiment: cell lysis assay, mouse L-cells (FIG. 1); assay type: cell-based; details: 50 μM; after 24 hours
[5] = tested on: human prostate cancer cells (LNCaP); experiment: ATP depletion assay (ATP bioluminescence), LNCaP (FIG. 3); assay type: cell-based; details: 50 or 100 μM; after 1 hour
Source text: (§3) In order to obtain a more quantitative result, the assay was repeated and decrease in ATP levels was used as a surrogate marker for live versus dead cells. ATP plays a central role in the energy status of the cell and the regulation of enzymatic activity. The intracellular ATP level is strictly regulated. The assay of ATP has been used as a rapid and convenient measure of viable cell numbers. ATP level can be enzymatically determined with firefly luciferase, which specifically catalyzes the hydrolysis of ATP. The amount of light generated by this enzymatic reaction is directly related to the amount of ATP in the original sample.
(§4) For this purpose, the ATP Bioluminescence Assay Kit CLS II from Boehringer-Mannheim (Cat. No. 1699695) was employed. Briefly, 10^6 cells in 200 μl of medium containing the peptide, as above, were incubated at 37° C. in a CO2 incubator for 60 min. The cells were then lysed with 10 μl of 10% Triton X-100. Each lysate was transferred into a tube containing 155 μl of distilled water and 25 μl of stock luciferase and chemiluminescence was measured in a luminometer as directed by the manufacturer. As can been seen from FIG. 3, ATP is dramatically depleted in the presence of either 50 or 100 μM peptide, as compared to the controls.

mouse L-cells [6] = experiment: ATP depletion assay (ATP bioluminescence), mouse L-cells (FIG. 3); assay type: cell-based; details: 50 or 100 μM; 1 hour
Source text: as §3, §4

With `CC[C@H](C)[C@H](NC(=O)CN)C(=O)NCC(=O)N[C@@H](C)C(=O)N[C@H](C(=O)N[C@@H](CC(C)C)C(=O)N[C@@H](CCCCN)C(=O)N[C@H](C(=O)N[C@@H](CC(C)C)C(=O)N[C@H](C(=O)N[C@H](C(=O)NCC(=O)N[C@@H](CC(C)C)C(=O)N1CCC[C@H]1C(=O)N[C@@H](C)C(=O)N[C@@H](CC(C)C)C(=O)N[C@H](C(=O)N[C@@H](CO)C(=O)N[C@@H](Cc1c[nH]c2ccccc12)C(=O)N[C@H](C(=O)N[C@@H](CCCCNC(=O)CC[C@H](NC(=O)CC[C@H](N)C(=O)O)C(=O)O)C(=O)N[C@@H](CCCNC(=N)N)C(=O)N[C@@H](CCCCNC(=O)CC[C@H](NC(=O)CC[C@H](N)C(=O)O)C(=O)O)C(=O)N[C@@H](CCCNC(=N)N)C(=O)N[C@@H](CCC(N)=O)C(=O)N[C@@H](CCC(N)=O)C(=O)O)[C@@H](C)CC)[C@@H](C)CC)[C@@H](C)O)[C@@H](C)O)C(C)C)C(C)C` [melittin analog] the lytic activity (PNCap) was “strong lytic activity”, the lytic activity (DU0145) was “strong lytic activity” and the lytic activity (HeLa; 1, 10, 50 or 100 μM peptide) was “strong lytic activity”. The toxicity to cells (HeLa; 25 and 50 mM concentrations) was “highly toxic”, the lytic activity (SK-OV-3) was “strong lytic activity” and the lytic activity (LLC 1) was “strong lytic activity”. The lytic activity (B 16) was “strong lytic activity”, the toxicity to cells [1] was “highly toxic” and the toxicity to cells [2] was “relatively unaffected”. The “tolerated concentration relative to concentration needed to kill a mouse using the unmasked melittin peptide” value (mice) was 50-200 fold and the “condition of mice after treatment” value (mice; subcutaneously or intravenously, weeks following treatment) was “remained healthy, apparently unaffected”.

In the case of “NH2-Gly-Phe-Ile-Ala-Thr-Leu-Cys-Thr-Lys-Val-Leu-Asp-Phe-Gly-Ile-Asp-Lys-Leu-Ile-Gln-Leu-Ile-Glu-Asp-Lys-CONH2 (H-GFIATLCTKVLDFGIDKLIQLIEDK-NH2; listed as Entamoeba histolytica) [Amoebapore Helix 3]”, the “concentration with cytolytic activity” value (nucleated cells) is given as 10 to 100 µM.

For “amoebapore helix 3-γ-Glu-γ-Glu: 25-residue C-terminal amidated amoebapore helix 3 peptide with two γ-linked glutamates on the ε amino group of the C-terminal lysine (GFIATLCTKVLDFGIDKLIQLIEDK([γGlu-γGlu])-NH2; N-terminus assumed; SMILES CC[C@H](C)[C@H](NC(=O)CNC(=O)[C@H](Cc1ccccc1)NC(=O)[C@H](CC(=O)O)NC(=O)[C@H](CC(C)C)NC(=O)[C@@H](NC(=O)[C@H](CCCCN)NC(=O)[C@@H](NC(=O)[C@H](CS)NC(=O)[C@H](CC(C)C)NC(=O)[C@@H](NC(=O)[C@H](C)NC(=O)[C@@H](NC(=O)[C@H](Cc1ccccc1)NC(=O)CN)[C@@H](C)CC)[C@@H](C)O)[C@@H](C)O)C(C)C)C(=O)N[C@@H](CC(=O)O)C(=O)N[C@@H](CCCCN)C(=O)N[C@@H](CC(C)C)C(=O)N[C@H](C(=O)N[C@@H](CCC(N)=O)C(=O)N[C@@H](CC(C)C)C(=O)N[C@H](C(=O)N[C@@H](CCC(=O)O)C(=O)N[C@@H](CC(=O)O)C(=O)N[C@@H](CCCCNC(=O)CC[C@H](NC(=O)CC[C@H](N)C(=O)O)C(=O)O)C(N)=O)[C@@H](C)CC)[C@@H](C)CC)”, the cell lysis [3] was “completely lysed”, the cell lysis (mouse L-cells [4]) was “remain unaffected” and the “cell lysis by ATP depletion” value [5] was “completely lysed”. For the same compound, the “cell lysis by ATP depletion” value (mouse L-cells [6]) was “remain unaffected”.
